Assay results taken from patent US4464359A, “(2'-5')-Oligo (3'-deoxyadenylate) and derivatives thereof” (Research Corporation, priority 1981, dated 1984).
Several values for one entry are separate records, joined by “and”; a condition that tells them apart may be missing. Equal values may be shown once. Read-outs that look alike come from different tables or passages of the source.

Legend:
[1] = tested on: Raji lymphoblastoid cell line; assay: Cytotoxicity by colony formation in microtiter plates, Raji; assay type: cell-based; conditions: for Concentration at which colony formation was inhibited by greater than 50 percent: treatment for 7 days
Experimental: (§1) Heparinized whole venous blood was obtained from the umbilical cords of newborn infants (human umbilical cord lymphocytes) or EBV-seronegative volunteers (peripheral blood lymphocytes) in collaboration with Temple University Hospital, Philadelphia, PA. Mononuclear leukocytes were prepared by the Ficoll-Hypaque method of Boyum (Scand. J. Clin. Invest. 21 (Sup. 97), 77 (1968)) and were cultured in RPMI-1640 supplemented with 20% fetal bovine serum as described (Henderson et al, Virology 76, 152 (1977)). The lymphoblastoid cell lines BJAB and RAJI were gifts of Drs. Werner and Gertrude Henle, Children's Hospital, University of Pennsylvania, Philadelphia, PA, and were cultured as described above. The lymphoblastoid line C85-5C was obtained by transformation of human umbilical cord lymphocytes following infection with EBV and maintained as described aove. Cultured mouse L cells were maintained in minimum essential medium (Eagle) supplemented with Earle's salts, L-glutamine and 6% fetal bovine serum. Interferon-treated mouse L cells were supplied by Dr. Esther H. Chang, National Cancer Institute, NIH. […] EBV stocks were maintained at -70° C. until use. Human umbilical cord lymphocytes and peripheral blood lymphocytes were infected as described (Henderson et al, Supra).
(§2) Therefore, the effect of these agents on colony formation in closely related lymphoblastoid cell lines was determined (Table 3).

[2] = tested on: BJAB lymphoblastoid cell line; assay: Cytotoxicity by colony formation in microtiter plates, BJAB; assay type: cell-based; conditions: for Concentration at which colony formation was inhibited by greater than 50 percent: treatment for 7 days
Experimental: as §1, §2

Epstein-Barr Virus (EBV) [3] = assay: EBV-induced morphological transformation of lymphocytes; assay type: cell-based; conditions: absence of interferon
Experimental: as §1
(§3) The antiviral properties of 5'-dephosphorylated "core" (2'-5')A(pA)2, (2'-5')A(pA)3 and (2'-5')3'dA-(p3'dA)2 were compared to the antiviral properties of IFN-α and IFN-β. The (2'-5')oligonucleotides and interferons inhibited Epstein-Barr Virus (EBV)-induced stimulation of DNA synthesis in EBV infected human lymphocytes. […] The "core" 3'-deoxy (2'-5') oligonucleotide analog inhibited EBV-induced morphological transformation of lymphocytes much the same as "core" (2'-5')A(pA)2 and (2'-5')A(pA)3.

Epstein-Barr Virus (EBV) [4] = assay: EBV-induced stimulation of DNA synthesis in EBV infected human lymphocytes; assay type: cell-based
Experimental: as §1

uninfected lymphocytes = assay: DNA synthesis of uninfected lymphocytes; assay type: cell-based, human
Experimental: as §1, §3

[5] = tested on: Herpes Simplex Virus Type 1 (HSV-1); assay: Infected centers assay: HSV-1 exposed leukocytes plated onto human foreskin fibroblast monolayers, cytopathic effects (cpe); assay type: cell-based; conditions: for development of cpe from HSV-1 infected leukocytes / HSV-1 replication: 72 hr incubation, human foreskin fibroblast monolayers
Experimental: Therefore, we employed an infected centers assay utilizing lymphocytes to determine the ability of (2'-5') oligonucleotides to inhibit HSV-1. After incubation for 72 hr with or without (2'-5')oligonucleotides, leukocytes exposed to HSV-1 were plated onto human foreskin fibroblast monolayers (Table 2).

[6] = tested on: C85-5C lymphoblastoid cell line; assay: Cytotoxicity by colony formation in microtiter plates, C85-5C; assay type: cell-based, human; conditions: treatment for 7 days
Experimental: as §1, with “Human umbilical cord lymphocytes and peripheral blood lymphocytes were infected as described (Henderson et al, Supra).” left out
as §2

[7] = tested on: lymphoblastoid cell lines; assay: Lymphoblast colony formation / cytotoxicity, cell line not given; assay type: cell-based
Experimental: as §1, with “Mononuclear leukocytes were prepared by the Ficoll-Hypaque method of Boyum (Scand. J. Clin. Invest. 21 (Sup. 97), 77 (1968)) and were cultured in RPMI-1640 supplemented with 20% fetal bovine serum as described (Henderson et al, Virology 76, 152 (1977)).” left out
as §2

[8] = Stability (hydrolysis) in HeLa cell extracts; assay type: in vitro ADME; conditions: 500 μM; cellulose tlc (solvents A and B)
Experimental: FIG. 2 is a stability representation of (2'-5')p3 A(pA)n and (2'-5')p3 3'dA(p3'dA)n in HeLa cell extracts.
The stability of (2'-5')ppp3'dA(p3'dA)n in HeLa cell extracts was compared to that of (2'-5')pppA(pA)n. […] With 500 μM (2'-5')pppA(pA)n, there was a 50% hydrolysis in 45 min as determined by DEAE cellulose chromatography; with 500 μM authentic core analog, (2'-5')3'dA(p3'dA)2, there was no hydrolysis as determined by cellulose tlc (solvents A and B). Neither cordycepin nor 3'dAMP was detected. The lack of hydrolysis of the analog may be similar to the lack of hydrolysis of (3'-5')2'-deoxyoligonucleotides by the 2',5'-phosphodiesterase.

| Molecule | concentration found toxic (inhibition of colony formation) [1] | Concentration at which colony formation was inhibited by greater than 50 percent [1] [µM] | concentration found toxic (inhibition of colony formation) [2] | Concentration at which colony formation was inhibited by greater than 50 percent [2] [µM] | EBV-induced morphological transformation of lymphocytes (Epstein-Barr Virus (EBV) [3]) | EBV-induced stimulation of DNA synthesis (Epstein-Barr Virus (EBV) [4]) | DNA synthesis of uninfected lymphocytes (uninfected lymphocytes) | cpe at given number of HSV-exposed leukocytes per cell ([5]; 10 μM, 2 × 10^5 leukocytes) | cpe at given number of HSV-exposed leukocytes per cell ([5]; 10 μM, 2.2 × 10^4 leukocytes) | cpe at given number of HSV-exposed leukocytes per cell ([5]; 10 μM, 6.7 × 10^4 leukocytes) | cpe at given number of HSV-exposed leukocytes per cell ([5]; 50 μM, 2 × 10^5 leukocytes) | cpe at given number of HSV-exposed leukocytes per cell ([5]; 50 μM, 2.2 × 10^4 leukocytes) | cpe at given number of HSV-exposed leukocytes per cell ([5]; 50 μM, 6.7 × 10^4 leukocytes) | cpe at given number of HSV-exposed leukocytes per cell ([5]; 75 μM, 2 × 10^5 leukocytes) | cpe at given number of HSV-exposed leukocytes per cell ([5]; 75 μM, 2.2 × 10^4 leukocytes) | cpe at given number of HSV-exposed leukocytes per cell ([5]; 75 μM, 6.7 × 10^4 leukocytes) | cpe at given number of HSV-exposed leukocytes per cell ([5]; 150 μM, 2 × 10^5 leukocytes) | cpe at given number of HSV-exposed leukocytes per cell ([5]; 150 μM, 2.2 × 10^4 leukocytes) | cpe at given number of HSV-exposed leukocytes per cell ([5]; 150 μM, 6.7 × 10^4 leukocytes) | development of cpe from HSV-1 infected leukocytes / HSV-1 replication [5] | other results |
| --- | --- | --- | --- | --- | --- | --- | --- | --- | --- | --- | --- | --- | --- | --- | --- | --- | --- | --- | --- | --- | --- |
| Nc1ncnc2c1ncn2[C@@H]1O[C@H](COP(=O)(O)O[C@@H]2[C@H](O)[C@@H](COP(=O)(O)O[C@@H]3[C@H](O)[C@@H](CO)O[C@H]3n3cnc4c(N)ncnc43)O[C@H]2n2cnc3c(N)ncnc32)[C@@H](O)[C@H]1O [(2'-5')A(pA)2, adenylyl-(2'-5')adenylyl(2'-5')adenosine] | 150 to 300 µM and 300 µM | 300 | 150 to 300 µM and 300 µM | 150 to 300 | inhibited | potent inhibitors | potent inhibitors | +++ | 0 | ++ | ++ | 0 | ++ | ++ | 0 | 0 | + | 0 | 0 | inhibited the development of cpe |  |
| IFN-α |  |  |  |  |  | inhibited |  |  |  |  |  |  |  |  |  |  |  |  |  |  | Concentration at which colony formation was inhibited by greater than 50 percent [6]: > 1000 U/ml; cytotoxicity / effect on lymphoblast colony formation [7]: no appreciable effect |
| Nc1ncnc2c1ncn2[C@@H]1O[C@H](COP(=O)(O)O[C@@H]2C[C@@H](COP(=O)(O)O[C@@H]3C[C@@H](CO)O[C@H]3n3cnc4c(N)ncnc43)O[C@H]2n2cnc3c(N)ncnc32)C[C@H]1O [(2'-5')3'dA(p3'dA)2, 3'-deoxyadenylyl (2'-5')3'-deoxyadenylyl(2'-5')3'-deoxyadenosine] | no toxicity | > 300 | no toxicity | > 300 | inhibited | inhibited only viral-induced DNA synthesis | inhibited only viral-induced DNA synthesis | +++ | + | ++ | ++ | + | ++ | ++ | 0 | + |  | 0 |  | less effective in inhibiting the development of cpe | concentration found toxic (inhibition of colony formation) ([1]; listed as (2'-5')2'dA(p3'dA)3): > 300 µM; concentration found toxic (inhibition of colony formation) ([2]; listed as (2'-5')2'dA(p3'dA)3): > 300 µM; hydrolysis in HeLa cell extracts [8]: no hydrolysis |
| Nc1ncnc2c1ncn2[C@@H]1O[C@H](COP(=O)(O)O[C@@H]2[C@H](O)[C@@H](COP(=O)(O)O[C@@H]3[C@H](O)[C@@H](COP(=O)(O)O[C@@H]4[C@H](O)[C@@H](CO)O[C@H]4n4cnc5c(N)ncnc54)O[C@H]3n3cnc4c(N)ncnc43)O[C@H]2n2cnc3c(N)ncnc32)[C@@H](O)[C@H]1O [(2'-5')A(pA)3, adenylyl(2'-5')adenylyl(2'-5')-adenylyl (2'-5')adenosine] |  | 50 |  | 150 | inhibited | potent inhibitors | potent inhibitors | ++ | 0 | + | + | 0 | 0 | ++ | 0 | 0 | + | 0 | 0 | inhibited the development of cpe |  |
